Earlier results as cited in patent publication US20200113872A1, “Ifetroban Treatment for Systemic Sclerosis” (Cumberland Pharmaceuticals Inc., priority 2016, published 2020).

System: pulmonary artery banded mice

CCCCCNC(=O)c1coc([C@H]2[C@@H](Cc3ccccc3CCC(=O)O)[C@@H]3CC[C@H]2O3)n1 [ifetroban, [1S-(1α,2α,3α,4α)]-2-[[3-[4-[(Pentylamino)carbonyl]-2-oxazolyl]-7-oxabicyclo[2.2.1]hept-2-yl]methyl]-benzenepropanoic acid]
right ventricular expression of anti-fibrotic and muscularization genes: augmented
ratio of the early (E) to late (A) ventricular filling velocities (E/A ratio) (one indicator of cardiac efficiency): increased
expression of genes associated with inflammation (right ventricle): decreased
cardiomyocyte hypertrophy (treatment with ifetroban): reduced
right ventricular fibrosis (treatment with ifetroban): reduced
